Target: Sigma non-opioid intracellular receptor 1 (Cavia porcellus) (UniProt Q60492)
Experiment: In vitro binding affinity towards Sigma receptor type 1 was determined by measuring its ability to displace [3H](+)-pentazocine from guinea pig brain membrane

Sequence of Sigma non-opioid intracellular receptor 1 (Cavia porcellus) (Q60492 whole entry, looked up): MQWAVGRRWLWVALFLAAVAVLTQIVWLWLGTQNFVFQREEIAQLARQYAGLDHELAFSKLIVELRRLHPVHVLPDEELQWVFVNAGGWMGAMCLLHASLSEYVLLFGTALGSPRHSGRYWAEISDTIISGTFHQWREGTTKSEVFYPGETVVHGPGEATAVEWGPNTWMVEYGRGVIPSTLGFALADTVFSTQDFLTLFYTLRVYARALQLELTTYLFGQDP

CN1CCC=C(c2nsnc2SCCCF)C1
Ki: 62.1 nM

CN1CCC=C(c2nsnc2SCCF)C1
Ki: 21.7 nM

From BindingDB's records for doi:10.1021/jm00001a002 (National Institutes of Health, 1995)
